Laboratory results taken from patent US20170172958A1, “Compounds for Use in Controlling Body Fat” (priority 2014, published 2017).

Columns and labels:
[1] = Plasma amino acids and sulphur compounds (tCys, tHcy, glutathione, taurine); type: in vivo, Male C3H mice
Description: Further, SCD activity increases with high tCys concentration in both rodents and humans. tCys refers to all natural forms of circulating cysteine, such as cysteine (thiol form), cystine (disulphide form), cysteine-mixed disulphides with other thiol compounds, and protein-bound cysteine not in peptide linkage. tCys in the plasma or serum can be measured using techniques described, for example, in WO2010/010383.
(§1) Male C3H mice were used. Two cohorts of twelve mice were weaned and fed on a commercial standard diet (SDS Rat and Mouse No.3 Breeding diet (RM3)), containing 3.36 g% fat, 22.45 g % protein and 71.21 g % carbohydrate, till maturity. At 11 weeks of age, the standard diet was replaced with a high fat diet (Research Diets Inc, USA, D12492, containing 35 g % fat, from lard and soybean oil). One cohort was provided with BSO (30 mmol/L) in their drinking water, concomitant with the start of high fat feeding, while the other cohort (control group) received no treatment. The mice were kept in accordance with UK Home Office welfare guidelines and project license restrictions under controlled light (12-h light and 12-h dark cycle; dark 7 p.m.-7 a.m.), temperature (21° C.±2° C.) and humidity (55%±10%) conditions. They had free access to water (10 ppm chlorine) and food throughout the experiment.

[2] = rats, Ogihara et al; cited from earlier work
[3] = Findeisen et al, cited from earlier work
[4] = system: stearoyl-coenzymeA desaturase (SCD); experiment: SCD activity indices (SCD16, SCD18) from plasma fatty acid ratios; type: in vivo, Male C3H mice; conditions: vs control
Description: Compounds of Formula I inhibit SCD activity, which can be measured using one or more activity indices. These can be based on measurements of different fatty acid components of the blood plasma or serum.
Activity indices are based on the amount of monounsaturated fatty acids relative to their respective […] precursors. The most commonly used SCD activity indices are derived from the ratio of palmitoleic to palmitic acids (“SCD16 index”), and the ratio of oleic to stearic acid (“SCD18 index”). These ratios are lowered with increased inhibition of SCD. SCD indices can either be calculated from plasma/serum free fatty acids, or from the total fatty acid pool, which also includes esterified fatty acids (e.g. triglycerides and phospholipids). Indices calculated from free fatty acid concentrations reflect SCD activity in adipose tissue, while those from total fatty acids reflect SCD activity in liver (Warensjo et al, Lipids Health Dis 2009, 8:37). Both in rodents and humans, SCD indices are associated with fat mass.
as §1

[5] = Body mass of mice on a high fat diet, BSO in drinking water, four weeks; type: in vivo, Male C3H mice; conditions: BSO 30 mmol/L in drinking water, over four week treatment, control group showed significant weight gain
Description: (§2) Male C3H mice were used. Two cohorts of twelve mice were weaned and fed on a commercial standard diet (SDS Rat and Mouse No.3 Breeding diet (RM3)), containing 3.36 g% fat, 22.45 g % protein and 71.21 g % carbohydrate, till maturity. At 11 weeks of age, the standard diet was replaced with a high fat diet (Research Diets Inc, USA, D12492, containing 35 g % fat, from lard and soybean oil). One cohort was provided with BSO (30 mmol/L) in their drinking water, concomitant with the start of high fat feeding, while the other cohort (control group) received no treatment. […]
(§3) Phenotyping tests were performed according to the European Phenotyping Resource for Standardised Screens (EMPReSS) from EUMORPHIA standardized protocols, available at http://empress.har.mrc.ac.uk. Body mass was measured daily on scales calibrated to 0.01 g. Metabolic rate was measured using indirect calorimetry (Oxymax; Columbus Instruments) to determine oxygen consumption and carbon dioxide production. Body composition (% fat tissue and % lean tissue) was assessed utilizing an EchoMRl-100 quantitative magnetic resonance whole body composition analyzer (Echo Medical Systems, Houston, Tex.).

[6] = Body composition (EchoMRI) and dissected fat depots of mice on a high fat diet; type: in vivo, Male C3H mice
Description: as §1, §3

[7] = Plasma fatty acid concentrations (free and total); type: in vivo, Male C3H mice; conditions: vs control
Description: as §1

[8] = Plasma ALT, lipid components, glucose and glycerol; type: in vivo, Male C3H mice; conditions: vs control
Description: as §1

[9] = Plasma and liver reduced and total glutathione, eight week BSO study; type: in vivo, Male C3H mice; conditions: eight weeks BSO, vs control
Description: as §1
(§4) For the results presented in FIGS. 23 and 24, the experiments were carried out using the same conditions as described above (i.e. same mouse strain, mouse age, diet, and experimental design) except that the mice were treated for eight weeks with BSO, and the plasma for insulin, glucose, and leptin analysis was drawn after a 6-hour fast, after six weeks of BSO treatment.

[10] = Metabolic rate by indirect calorimetry (Oxymax); type: in vivo, Male C3H mice; conditions: dark and light phases, per unit weight, vs control, P<0.001
Description: as §2, §3

[11] = Fasting plasma glucose, insulin and HOMA-IR, eight week BSO study; type: in vivo, Male C3H mice; conditions: after six weeks of BSO treatment, vs control
Description: as §1
Thus, BSO-treated mice had lower glucose plasma levels, and lower insulin concentrations compared to the control. […] The HOMA IR index is a calculation of insulin resistance based on fasting glucose and insulin plasma levels, the calculation being known to those skilled in the art. Leptin plasma levels are also shown.
as §4

adipocytes = conditions: Vigilanza et al; cited from earlier work
liver cells = experiment: Liver histology, fat vacuolation score; type: in vivo, Male C3H mice; conditions: high fat diet, vs control
Description: as §1

[12] = dissected mice, vs control, P<0.001

**Q.** Which “concentration of amino acids in the plasma” value ([1]; difference between BSO and control cohorts) does the source give for `CCCCS(=N)(=O)CCC(N)C(=O)O` (centres unmarked) [BSO, buthionine sulfoximine] here?
**A.** Its value is “little difference”.

**Q.** What about the plasma glutathione concentrations ([1]; four week study, vs control) of the same compound?
**A.** Its plasma glutathione concentrations is “decrease”.

**Q.** What about the “total homocysteine (tHcy) plasma concentrations” value ([1]; vs control) of the same compound?
**A.** Its value is “larger concentrations”.

**Q.** What about the plasma taurine concentrations ([1]; vs control cohort) of the same compound?
**A.** Its plasma taurine concentrations is “substantially lower”.

**Q.** What about the “plasma tCys concentrations” value ([1]; vs controls, all measured forms of cysteine) of the same compound?
**A.** The value was “significantly and substantially lower”.

**Q.** And the insulin resistance [2]?
**A.** Its insulin resistance is “induces insulin resistance”.

**Q.** And the insulin sensitivity [3]?
**A.** Its insulin sensitivity is “preserve insulin sensitivity”.

**Q.** And the diet-induced obesity ([3]; mice)?
**A.** Its diet-induced obesity is “reduce”.

**Q.** What about the energy expenditure ([3]; mice) of the same compound?
**A.** The energy expenditure was “increase”.

**Q.** And the locomotor activity ([3]; mice)?
**A.** Its locomotor activity is “increase”.

**Q.** And the “oleic acid to stearic acid ratio (SCD18 index)” value ([4]; free fatty acids in plasma)?
**A.** Its value is “lower”.

**Q.** And the “ratio of palmitoleic acid to palmitic acid (SCD16 index)” value ([4]; free fatty acids in plasma)?
**A.** The value was “lower”.

**Q.** What about the “unsaturated/saturated fatty acid ratios (SCD16 and SCD18 activity indices)” value ([4]; total fatty acid concentrations in plasma) of the same compound?
**A.** The value was “lower”.

**Q.** And the body weight [5]?
**A.** The body weight was “reduction in body weight”.

**Q.** What about the “amount of brown fat mass” value ([6]; dissected mice, vs control) of the same compound?
**A.** Its value is “similar”.

**Q.** What about the “abdominal fat as a percentage of total body weight” value [6, 12] of the same compound?
**A.** The value was “significantly lower”.

**Q.** What about the “quantity of abdominal fat in grams” value [6, 12] of the same compound?
**A.** Its value is “significantly lower”.

**Q.** What about the lean mass ([6]; echo MRI, difference between BSO and control cohorts) of the same compound?
**A.** The lean mass was “only a relatively small difference”.

**Q.** What about the “quantity of body fat” value ([6]; echo MRI, vs control mice, high fat diet) of the same compound?
**A.** The value was “substantially lower”.

**Q.** And the “brown fat as a percentage of total fat mass” value ([6]; vs control, P<0.05)?
**A.** Its value is “higher”.

**Q.** And the “abdominal fat mass as a percentage of total fat mass” value ([6]; vs control, P=0.055)?
**A.** Its value is “trend towards decrease”.

**Q.** What about the “fatty acid plasma concentrations, a number of C14 to C22 fatty acids” value ([7]; free and total fatty acids) of the same compound?
**A.** Its value is “lower”.

**Q.** What about the “free palmitic acid plasma concentration” value [7] of the same compound?
**A.** Its value is “lower”.

**Q.** What about the “free palmitoleic acid plasma concentration” value [7] of the same compound?
**A.** The value was “lower”.

**Q.** What about the plasma glucose ([8]; four week study) of the same compound?
**A.** The plasma glucose was “decreased”.

**Q.** What about the plasma glycerol [8] of the same compound?
**A.** The plasma glycerol was “decreased”.

**Q.** What about the “plasma high density lipoprotein (HDL)” value [8] of the same compound?
**A.** Its value is “lower”.

**Q.** What about the “plasma low density lipoprotein (LDL)” value [8] of the same compound?
**A.** The value was “lower”.

**Q.** And the “plasma non-esterified fatty acids” value [8]?
**A.** Its value is “lower”.

**Q.** What about the plasma total cholesterol [8] of the same compound?
**A.** The plasma total cholesterol was “lower”.

**Q.** And the plasma triglycerides ([8]; lower, particularly so)?
**A.** The plasma triglycerides was “lower”.

**Q.** What about the “plasma ALT concentrations” value ([8]; marker of NAFLD) of the same compound?
**A.** The value was “substantially lower”.

**Q.** And the “liver rGSH levels” value [9]?
**A.** Its value is “similar”.

**Q.** What about the “liver rGSH/tGSH ratio” value [9] of the same compound?
**A.** The value was “higher”.

**Q.** And the “liver tGSH levels” value [9]?
**A.** Its value is “lower”.

**Q.** What about the “plasma rGSH/tGSH ratio” value [9] of the same compound?
**A.** Its value is “similar”.

**Q.** And the “plasma reduced glutathione (rGSH)” value [9]?
**A.** The value was “lower”.

**Q.** And the “plasma total glutathione (tGSH)” value [9]?
**A.** Its value is “lower”.

**Q.** What about the carbon dioxide production [10] of the same compound?
**A.** Its carbon dioxide production is “greater”.

**Q.** And the oxygen consumption [10]?
**A.** Its oxygen consumption is “significantly greater”.

**Q.** And the glucose plasma levels ([11]; 6-hour fast)?
**A.** The glucose plasma levels was “lower”.

**Q.** And the insulin plasma concentrations ([11]; 6-hour fast)?
**A.** Its insulin plasma concentrations is “lower”.

**Q.** What about the “HOMA insulin-resistance (IR) index” value ([11]; from fasting glucose and insulin) of the same compound?
**A.** Its value is “significantly lower”.

**Q.** And the adipogenesis (adipocytes)?
**A.** The adipogenesis was “increased adipogenesis”.

**Q.** And the intracellular glutathione (adipocytes)?
**A.** The intracellular glutathione was “decreases”.

**Q.** And the triglycerides in adipocytes (adipocytes)?
**A.** The triglycerides in adipocytes was “triglyceride accumulation”.

**Q.** And the liver fat vacuolation (liver cells)?
**A.** The liver fat vacuolation was “absent”.
